Several values for one entry are separate records, joined by “and”; a condition that tells them apart may be missing. Equal entries are not always repeated. Where two headings read alike, the source gives them in different places. One block for each molecule: values may come before it.
What was measured:
hMAGL [1] = molecular target: T1, hMAGL (Homo sapiens, UniProt Q99685); details: 15d-PGJ2-G as substrate for hMAGL; cited from earlier work
T1 construct: expressed in transfected cells; host or cells: HEK
T1 sequence (Q99685 1-303): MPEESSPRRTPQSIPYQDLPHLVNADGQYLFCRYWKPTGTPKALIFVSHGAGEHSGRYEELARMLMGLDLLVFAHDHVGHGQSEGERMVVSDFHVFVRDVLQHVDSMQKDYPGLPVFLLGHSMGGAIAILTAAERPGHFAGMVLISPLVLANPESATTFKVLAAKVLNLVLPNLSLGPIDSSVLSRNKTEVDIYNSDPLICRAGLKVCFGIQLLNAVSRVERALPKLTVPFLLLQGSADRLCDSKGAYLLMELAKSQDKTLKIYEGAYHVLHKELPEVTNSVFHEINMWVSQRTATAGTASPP

hBAT5 [2] = molecular target: T2, hBAT5 (Homo sapiens, UniProt O95870); experiment: hBAT5 substrate hydrolysis and Michaelis-Menten kinetics (glycerol assay, hBAT5-HEK293 lysates); details: with 0.5% BSA
T2 sequence (O95870 1-558): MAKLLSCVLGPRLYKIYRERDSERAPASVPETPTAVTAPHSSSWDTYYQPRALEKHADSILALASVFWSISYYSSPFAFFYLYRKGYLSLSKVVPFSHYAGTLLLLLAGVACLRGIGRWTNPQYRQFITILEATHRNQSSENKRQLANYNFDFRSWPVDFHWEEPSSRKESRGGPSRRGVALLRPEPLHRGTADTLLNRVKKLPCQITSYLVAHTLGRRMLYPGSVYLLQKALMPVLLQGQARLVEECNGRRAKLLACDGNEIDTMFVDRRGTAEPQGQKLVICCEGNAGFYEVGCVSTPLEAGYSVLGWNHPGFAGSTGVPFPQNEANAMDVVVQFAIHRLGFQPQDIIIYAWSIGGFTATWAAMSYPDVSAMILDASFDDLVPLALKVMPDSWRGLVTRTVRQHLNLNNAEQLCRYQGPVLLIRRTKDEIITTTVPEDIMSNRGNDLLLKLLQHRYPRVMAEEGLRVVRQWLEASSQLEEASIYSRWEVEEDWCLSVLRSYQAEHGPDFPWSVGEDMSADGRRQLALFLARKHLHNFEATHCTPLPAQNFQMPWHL
Description: (§1) HEK293 cells were transiently transfected with the cDNA encoding hBAT5, as detailed in the Methods section. After 48 h, cells were harvested and lysates prepared for hydrolase activity measurements using a sensitive fluorescent glycerol assay. […] Glycerol production was determined at time-point 60 min.
(§2) After 48 h, cells were harvested and lysates prepared for hydrolase activity measurements. Cellular lysates (0.3 µg/well) were incubated together with the indicated concentrations of 1-LG in assay mixes containing (+ BSA) or not (– BSA) 0.5% (w/v) BSA (A) or with 15d-PGJ2-G in assay mix containing BSA (B). […] As crude cellular lysates were used, total protein concentration was used instead of true enzyme concentration. […] Values are mean ± SEM from three independent experiments.
(§3) Glycerol liberated from the hydrolysis of glycerolipid substrates was determined kinetically using a fluorometric assay, essentially as previously described [10]. Briefly, glycerol production was coupled via a three-step enzymatic cascade to hydrogen peroxide (H2O2) dependent generation of resorufin whose fluorescence (λex 530; λem 590 nm) was kinetically monitored using a Tecan Infinite M200 plate reader (Tecan Group Ltd., Männedorf, Switzerland). The assays routinely contained 0.5% (w/v) BSA (essentially fatty acid free) as a carrier for lipophilic compounds. […] The twelve MAG substrates were tested also in assays without BSA. In addition, four commercially available PG-Gs were included. To monitor assay performance, assay blanks without enzyme, cellular background (HEK293/Mock cell lysates) as well as a glycerol standard were included for each tested substrate. Fluorescence of the assay blank was subtracted before calculation of the final results.

hMAGL [3] = molecular target: T1, hMAGL; experiment: Hydrolase activity assay, hMAGL-HEK lysates; type: biochemical
hFAAH = molecular target: T3, hFAAH (Homo sapiens, UniProt O00519); experiment: FAAH activity assay, hFAAH-COS7 membranes (3H-anandamide); type: biochemical
T3 construct: expressed in transfected cells; host or cells: COS-7
T3 sequence (O00519 1-579): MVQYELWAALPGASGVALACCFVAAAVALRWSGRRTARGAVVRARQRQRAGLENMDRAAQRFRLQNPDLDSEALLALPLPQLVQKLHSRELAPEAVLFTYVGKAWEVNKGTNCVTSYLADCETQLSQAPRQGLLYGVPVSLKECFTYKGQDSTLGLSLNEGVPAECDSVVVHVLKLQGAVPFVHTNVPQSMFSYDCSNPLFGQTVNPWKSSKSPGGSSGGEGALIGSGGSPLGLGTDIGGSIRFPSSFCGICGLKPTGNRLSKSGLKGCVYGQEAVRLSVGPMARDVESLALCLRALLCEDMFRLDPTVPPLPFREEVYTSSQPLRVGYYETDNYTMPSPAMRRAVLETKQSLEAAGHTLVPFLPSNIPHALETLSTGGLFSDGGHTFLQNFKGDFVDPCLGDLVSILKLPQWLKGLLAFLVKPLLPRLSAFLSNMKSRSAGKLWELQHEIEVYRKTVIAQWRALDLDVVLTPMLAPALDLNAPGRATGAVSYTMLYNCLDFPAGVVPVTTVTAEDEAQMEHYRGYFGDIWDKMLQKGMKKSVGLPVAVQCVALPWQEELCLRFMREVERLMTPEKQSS

hABHD6 = molecular target: T4, hABHD6 (Homo sapiens, UniProt Q9BV23); experiment: Hydrolase activity assay, hABHD6-HEK lysates; type: biochemical; details: IC50, hABHD6-HEK lysates
T4 construct: expressed in transfected cells; host or cells: HEK293
T4 sequence (Q9BV23 1-337): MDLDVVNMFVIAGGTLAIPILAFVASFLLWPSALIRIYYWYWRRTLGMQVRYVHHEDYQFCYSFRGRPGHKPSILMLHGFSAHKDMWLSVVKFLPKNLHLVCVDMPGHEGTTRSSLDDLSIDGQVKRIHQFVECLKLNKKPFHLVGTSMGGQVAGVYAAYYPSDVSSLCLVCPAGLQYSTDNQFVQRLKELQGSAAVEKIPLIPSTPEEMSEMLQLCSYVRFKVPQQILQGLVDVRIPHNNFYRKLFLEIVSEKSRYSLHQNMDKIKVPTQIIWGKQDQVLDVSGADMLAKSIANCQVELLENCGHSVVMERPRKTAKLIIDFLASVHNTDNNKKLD

hABHD12 [4] = molecular target: T5, hABHD12 (Homo sapiens, UniProt Q8N2K0); experiment: Hydrolase activity assay, hABHD12-HEK lysates; type: biochemical
T5 construct: expressed in transfected cells; host or cells: HEK293
T5 sequence (Q8N2K0 1-398): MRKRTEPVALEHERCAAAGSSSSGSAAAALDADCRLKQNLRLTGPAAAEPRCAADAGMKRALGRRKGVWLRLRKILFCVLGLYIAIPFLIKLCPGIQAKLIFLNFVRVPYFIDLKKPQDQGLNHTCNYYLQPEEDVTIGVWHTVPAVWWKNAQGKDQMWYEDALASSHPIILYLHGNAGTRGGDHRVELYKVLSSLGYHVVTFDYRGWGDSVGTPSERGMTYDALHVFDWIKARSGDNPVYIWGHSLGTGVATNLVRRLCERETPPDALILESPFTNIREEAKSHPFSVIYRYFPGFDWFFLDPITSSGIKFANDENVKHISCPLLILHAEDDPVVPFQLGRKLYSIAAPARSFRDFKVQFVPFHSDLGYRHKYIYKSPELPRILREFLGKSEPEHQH

BAT5 = molecular target: T6, BAT5 (Mus musculus, UniProt Q9Z1Q2); experiment: Competitive ABPP, mouse brain membrane proteome: BAT5 band; details: reference inhibitor at the indicated concentration, used to identify the band (refs 4, 18)
T6 sequence (Q9Z1Q2 1-558): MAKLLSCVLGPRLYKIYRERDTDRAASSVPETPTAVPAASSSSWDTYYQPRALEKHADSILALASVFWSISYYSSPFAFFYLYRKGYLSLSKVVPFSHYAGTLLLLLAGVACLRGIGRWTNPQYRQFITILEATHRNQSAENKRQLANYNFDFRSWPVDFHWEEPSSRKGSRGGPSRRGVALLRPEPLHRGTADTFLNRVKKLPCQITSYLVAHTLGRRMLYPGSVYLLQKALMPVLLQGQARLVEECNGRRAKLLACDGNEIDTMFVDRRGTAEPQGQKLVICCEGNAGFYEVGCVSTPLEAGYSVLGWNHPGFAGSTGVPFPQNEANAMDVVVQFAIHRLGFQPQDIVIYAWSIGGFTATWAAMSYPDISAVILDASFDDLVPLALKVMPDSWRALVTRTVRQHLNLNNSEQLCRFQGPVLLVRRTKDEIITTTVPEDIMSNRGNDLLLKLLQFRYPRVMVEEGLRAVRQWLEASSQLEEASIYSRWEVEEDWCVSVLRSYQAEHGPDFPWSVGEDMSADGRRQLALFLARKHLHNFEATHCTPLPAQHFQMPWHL

hABHD12 [5] = molecular target: T5, hABHD12; design: method as in PMID 22969151; details: hABHD12-HEK lysates; cited from earlier work
ABHD6 = molecular target: T7, ABHD6 (Mus musculus, UniProt Q8R2Y0); experiment: Competitive ABPP, mouse brain membrane proteome: ABHD6 band
T7 sequence (Q8R2Y0 1-336): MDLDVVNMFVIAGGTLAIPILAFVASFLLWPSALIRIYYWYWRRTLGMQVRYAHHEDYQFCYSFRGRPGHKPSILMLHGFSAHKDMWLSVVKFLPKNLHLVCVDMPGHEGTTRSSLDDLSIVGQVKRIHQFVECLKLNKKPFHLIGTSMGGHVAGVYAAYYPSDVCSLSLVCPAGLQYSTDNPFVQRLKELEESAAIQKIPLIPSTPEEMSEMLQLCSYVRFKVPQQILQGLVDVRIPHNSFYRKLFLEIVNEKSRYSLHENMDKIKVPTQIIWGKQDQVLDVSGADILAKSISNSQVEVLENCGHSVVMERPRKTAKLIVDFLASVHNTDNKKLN

hBAT5 [6] = molecular target: T2, hBAT5; experiment: Inhibition of 1-LG hydrolysis in hBAT5-HEK293 lysates (fluorescent glycerol assay); type: biochemical; design: host or cells: HEK293; details: 1-LG 25 µM; 30 min inhibitor pretreatment; monitored 90 min; mean, n=3; read-out: IC50
[7] = substrate: CCCCC/C=C\C/C=C\CCCCCCCCOCC(O)CO; experiment: cells, lysate or membranes named; details: other: substrate of hBAT5, time-point 90 min, n=3
Description: as §1, §2, §3

- hydrolysis by hBAT5 (substrate utilization, in words) (hBAT5 [2]; 25 µM substrate, 60 min): readily hydrolyzed
- Km (hBAT5 [2]; substrate of hBAT5, time-point 90 min, n=3): 20.9 µM and ~21 µM
- Vmax (hBAT5 [2]; substrate of hBAT5, total lysate protein, n=3): 3.0 ± 0.2 nmol/mg/min
Molecule: CCCCC/C=C/C=C1/C(=O)C=CC1C/C=C\CCCC(=O)OC(CO)CO (stereo not shown) [15d-PGJ2-G, 15-deoxy-Δ^12,14-prostaglandin J2-2-glycerol ester]
- Km (hMAGL [1]): ~15 µM

Molecule: CCC(C)C(O)C(C)C(=O)C(C)C=C(C)CC(C)C1OC(=O)C1C (stereo not shown) [Ebelactone A, ebelactone A]
- remaining activity at 10 µM (hMAGL [3]): 90.8%
- sensitivity of hMAGL (in words) (hMAGL [3]): resistant
- remaining activity at 10 µM (hFAAH): 87.3%
- sensitivity of hFAAH (in words) (hFAAH): resistant
- IC50 (hABHD6): 870 nM
- remaining activity at 10 µM (hABHD12 [4]): 100%
- sensitivity of hABHD12 (in words) (hABHD12 [4]): resistant

Molecule: CCCCCCCCCCC[C@@H](C[C@@H]1OC(=O)[C@H]1CCCCCC)OC(=O)[C@H](CC(C)C)NC=O [THL, tetrahydrolipstatin]
- remaining activity at 10 µM (hMAGL [3]; at 10^−5 M, read-out: Remaining activity): 88.1%
- remaining activity at 10 µM (hFAAH): 100%
- inhibition of probe labeling of BAT5 by reference inhibitor (BAT5): inhibited
- IC50 (hABHD12 [5]): 193 nM
- inhibition of probe labeling of ABHD6 by reference inhibitor (ABHD6): inhibited
- IC50 (hBAT5 [6]): 170 nM

B1: hBAT5 (Homo sapiens) (protein)
chain: T2 sequence (O95870 1-558)
- Km ([7]; with 0.5% BSA): 137.8 ± 30.6 µM and 140 µM
- Km ([7]; without BSA): 6.9 ± 1.7 µM

Reference: publication PMC4188605, “Biochemical and Pharmacological Characterization of the Human Lymphocyte Antigen B-Associated Transcript 5 (BAT5/ABHD16A)” (PLoS ONE, 2014)
